Experimental data from patent publication US20030135023A1, “Peptide structures useful for competitive modulation of dipeptidyl peptidase IV catalysis” (priority 2001, published 2003).
“And” between values parts separate entries of the source, which are not always exact repeats. Equal entries are not always repeated. Square brackets hold non-standard residues; d marks the D form. Peptide text beside a SMILES is read from it. Tle = CC(C)(C)[C@H](N)C(=O)O

How the values were obtained:
purified porcine DP IV = purified porcine DP IV (Sus scrofa, UniProt P22411); assay: Determination of Ki-values, Gly-Pro-pNA cleavage by DP IV; type: biochemical; settings: Gly-Pro-pNA 0.05-0.4 mM
Sequence of purified porcine DP IV (P22411 whole entry): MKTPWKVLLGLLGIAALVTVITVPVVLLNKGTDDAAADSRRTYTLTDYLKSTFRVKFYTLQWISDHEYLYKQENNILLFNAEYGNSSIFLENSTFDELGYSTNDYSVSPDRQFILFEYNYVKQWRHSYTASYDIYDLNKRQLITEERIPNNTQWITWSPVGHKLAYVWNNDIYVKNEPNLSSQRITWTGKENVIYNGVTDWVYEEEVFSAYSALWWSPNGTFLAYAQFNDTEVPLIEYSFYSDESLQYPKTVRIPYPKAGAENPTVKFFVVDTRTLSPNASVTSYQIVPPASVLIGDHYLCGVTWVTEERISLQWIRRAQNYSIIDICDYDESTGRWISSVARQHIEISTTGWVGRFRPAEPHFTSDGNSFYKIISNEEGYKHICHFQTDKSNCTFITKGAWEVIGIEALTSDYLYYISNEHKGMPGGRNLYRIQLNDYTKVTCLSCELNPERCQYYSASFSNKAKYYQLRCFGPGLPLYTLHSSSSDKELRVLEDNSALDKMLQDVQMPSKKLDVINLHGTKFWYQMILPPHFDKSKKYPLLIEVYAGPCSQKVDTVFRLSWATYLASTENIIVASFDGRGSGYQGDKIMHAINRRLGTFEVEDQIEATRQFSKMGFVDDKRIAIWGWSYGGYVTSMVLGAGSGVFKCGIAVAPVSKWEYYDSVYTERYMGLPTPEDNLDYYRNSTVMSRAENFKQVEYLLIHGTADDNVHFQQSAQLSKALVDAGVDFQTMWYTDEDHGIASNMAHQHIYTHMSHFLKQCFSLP
Method: 100 μl inhibitor stock solution were mixed with 100 μl buffer (HEPES pH 7.6) and 50 μl substrate (Gly-Pro-pNA, final concentration 0.4 mM) and preincubated at 30° C. Reaction was started by addition of 20 μl purified porcine DP IV. Formation of the product pNA was measured at 405 nm over 10 min using the HTS 7000 Plus plate reader (Perkin Elmer) and slopes were calculated. The final inhibitor concentrations ranged between 1 mM and 30 nM.
Calculations were performed using the GraFit Software.

plasma DP IV = target: T1, plasma DP IV (Rattus norvegicus, UniProt P14740); assay: Plasma DP IV activity after intravasal and oral administration in Wistar rats; type: in vivo; settings: for Plasma DP IV activity / DP IV-AUC / Drop of plasma DP IV activity: iv (intravasal) 100 mg/kg b.w.
T1 construct: The assay mixture consisted of 80 μl reagent and 20 μl plasma; from tissue; host or cells: plasma of Wistar rats
T1 sequence (P14740 37-767 limits assumed): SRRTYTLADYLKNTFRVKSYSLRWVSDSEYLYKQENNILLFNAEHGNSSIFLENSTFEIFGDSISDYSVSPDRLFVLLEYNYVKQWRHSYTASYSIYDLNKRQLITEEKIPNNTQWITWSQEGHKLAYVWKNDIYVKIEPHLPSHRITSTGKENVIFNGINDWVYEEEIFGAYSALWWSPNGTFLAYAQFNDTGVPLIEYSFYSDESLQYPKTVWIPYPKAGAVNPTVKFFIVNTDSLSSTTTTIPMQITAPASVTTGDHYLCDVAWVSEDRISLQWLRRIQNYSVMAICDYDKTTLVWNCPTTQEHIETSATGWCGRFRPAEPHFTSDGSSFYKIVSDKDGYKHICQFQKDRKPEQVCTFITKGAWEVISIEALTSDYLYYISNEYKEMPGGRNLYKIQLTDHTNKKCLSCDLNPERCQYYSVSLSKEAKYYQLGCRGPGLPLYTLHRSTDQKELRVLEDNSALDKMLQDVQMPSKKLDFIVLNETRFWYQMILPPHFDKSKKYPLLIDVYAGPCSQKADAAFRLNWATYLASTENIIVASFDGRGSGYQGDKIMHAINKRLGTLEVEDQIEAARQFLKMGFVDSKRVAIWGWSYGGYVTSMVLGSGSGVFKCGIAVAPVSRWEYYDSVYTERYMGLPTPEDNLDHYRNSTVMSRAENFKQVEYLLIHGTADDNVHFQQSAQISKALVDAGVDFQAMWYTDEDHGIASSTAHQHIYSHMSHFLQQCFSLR
Method: Rats with intact catheter function were given the test substances intravasal (intraarterial) or oral, respectively, in random order (N=3 Wistar rats in each group). As positive control, […]. isoleucine thiazolidine*fumarate were administered intravasal.
After overnight fasting, 100 μl samples of heparinized arterial blood were collected at −30, −5, and 0 min into ice-cooled Eppendorf tubes (see below). The test substances were dissolved freshly in 1.0 ml saline (0.154 mol/l) and were given at 0 min either oral via a feeding tube ([…], 75 mm; Fine Science Tools, Heidelberg, Germany) or intravasal. For the intravasal route, the catheter was immediately flushed with 30 μl saline and an additional 1 ml of saline was given orally via the feeding tube.
Arterial blood samples were taken thereafter at 5, 10 (only in a limited number of experiments), 20, 40, 60 and 120 min from the carotid catheter of the conscious unrestrained rats and were always given into ice cooled Eppendorf tubes (Eppendorf-Netheler-Hinz, Hamburg, Germany) filled with 10 μl 1 M citrate buffer pH 3.0 for prevention of further hydrolysis of tripeptides by plasma DP IV activity. Eppendorf tubes were centrifuged immediately (12000 rpm for 2 min, Hettich Zentrifuge EBA 12, Tuttlingen; Germany): The plasma fractions were store on ice until analysis or were deeply frozen at −20 ° C. until analysis.
Plasma DP IV activity: The assay mixture consisted of 80 μl reagent and 20 μl plasma. Kinetic measurements of the formation of the yellow product 4-nitroaniline were performed at 390 nm for 1 min at 30° C. after 2 min pre-incubation at the same temperature. The activity was expressed as arbitrary units [AU] and DP IV activity [mU/ml].
The absolute values of plasma DP IV activity, the relative change of plasma DP IV activity and the time and extent of maximal inhibition were calculated. Data presentation included the presentation of area under the curve (AUC), which was used for evaluation of extent of inhibition of plasma DP IV activity during the two hours of observation. AUC was calculated using the trapezoidal rule.
To compare relative changes of parameters under the conditions of different initial values of DP IV activity an uniform standardised mean (values) was set up at the beginning of the test (see Figures and Tables).
Statistical evaluations were performed with Microsoft Excel® 97. All variables are presented as mean and standard deviation (SD). Treatment groups were compared by Student's t-test, within-group changes by paired t-test. Two-tailed values of p<0.05 were considered significant.

- Ki (purified porcine DP IV): 3.1 µM
- DP IV-AUC0-120 min (plasma DP IV; intra-vasal 100 mg/kg b.w.): −617±234 mU·min·ml^−1
- plasma DP IV at 5 min (plasma DP IV; intravasal 100 mg/kg b.w., p<0.05): below 10 mU/ml
- Plasma DP IV activity (plasma DP IV; 2.5 min, Mean): 19.01 mU/ml
- Plasma DP IV activity (plasma DP IV; 2.5 min, Standardized Mean): 15.18 mU/ml
- Plasma DP IV activity (plasma DP IV; 5 min, Mean): 18.86 mU/ml
- Plasma DP IV activity (plasma DP IV; 5 min, Standardized Mean): 15.03 mU/ml
- Plasma DP IV activity (plasma DP IV; 7.5 min, Mean): 21.05 mU/ml
- Plasma DP IV activity (plasma DP IV; 7.5 min, Standardized Mean): 17.22 mU/ml
- Plasma DP IV activity (plasma DP IV; 10 min, Mean): 17.25 mU/ml
- Plasma DP IV activity (plasma DP IV; 10 min, Standardized Mean): 13.42 mU/ml
- Plasma DP IV activity (plasma DP IV; 15 min, Mean): 15.50 mU/ml
- Plasma DP IV activity (plasma DP IV; 15 min, Standardized Mean): 11.67 mU/ml
- Plasma DP IV activity (plasma DP IV; 20 min, Mean): 18.71 mU/ml
- Plasma DP IV activity (plasma DP IV; 20 min, Standardized Mean): 14.88 mU/ml
- Plasma DP IV activity (plasma DP IV; 20 min, individual animals, 100 mg/kg): 15.35 mU/ml (2×) and 25.44 mU/ml
- Plasma DP IV activity (plasma DP IV; 40 min, Mean): 17.98 mU/ml
- Plasma DP IV activity (plasma DP IV; 40 min, Standardized Mean): 14.15 mU/ml
- Plasma DP IV activity (plasma DP IV; 60 min, Mean): 17.25 mU/ml
- Plasma DP IV activity (plasma DP IV; 60 min, Standardized Mean): 13.42 mU/ml
- Plasma DP IV activity (plasma DP IV; 120 min, Mean): 19.44 mU/ml
- Plasma DP IV activity (plasma DP IV; 120 min, Standardized Mean): 15.61 mU/ml
- DP IV-AUC (plasma DP IV; Mean): −673.4 AU · min
- Drop of plasma DP IV activity (plasma DP IV; Mean): 5.19 mU/ml
- Drop of plasma DP IV activity (plasma DP IV; individual animals, 100 mg/kg): 5.70 mU/ml and 6.58 mU/ml and 3.29 mU/ml
- time period over which plasma DP IV decreased slowly (plasma DP IV; oral 100 mg/kg b.w.): 40 min
Structure (SMILES): CC[C@H](C)[C@H](NC(=O)[C@@H]1CCCN1C(=O)[C@@H](N)C(C)(C)C)C(=O)O [t-butyl-Gly-Pro-Ile] (H-[Tle]-Pro-Ile-OH; N-terminus and C-terminus assumed)
- Plasma DP IV activity (plasma DP IV; 2.5 min, individual animals, 100 mg/kg): 15.35 mU/ml and 27.63 mU/ml and 14.04 mU/ml
- Plasma DP IV activity (plasma DP IV; 5 min, individual animals, 100 mg/kg): 15.35 mU/ml and 25.00 mU/ml and 16.23 mU/ml
- Plasma DP IV activity (plasma DP IV; 7.5 min, individual animals, 100 mg/kg): 17.11 mU/ml and 27.63 mU/ml and 18.42 mU/ml
- Plasma DP IV activity (plasma DP IV; 10 min, individual animals, 100 mg/kg): 17.11 mU/ml and 20.18 mU/ml and 14.47 mU/ml
- Plasma DP IV activity (plasma DP IV; 15 min, individual animals, 100 mg/kg): 14.47 mU/ml and 18.42 mU/ml and 13.60 mU/ml
- Plasma DP IV activity (plasma DP IV; 40 min, individual animals, 100 mg/kg): 14.91 mU/ml and 23.68 mU/ml and 15.35 mU/ml
- Plasma DP IV activity (plasma DP IV; 60 min, individual animals, 100 mg/kg): 15.79 mU/ml and 22.37 mU/ml and 13.60 mU/ml
- Plasma DP IV activity (plasma DP IV; 120 min, individual animals, 100 mg/kg): 17.11 mU/ml and 25.88 mU/ml and 15.35 mU/ml
- DP IV-AUC (plasma DP IV; individual animals, 100 mg/kg): −452.9 AU · min and −1179.3 AU · min and −388.2 AU · min
